ChEMBL document CHEMBL1649565, “Besifloxacin, a novel fluoroquinolone, has broad-spectrum in vitro activity against aerobic and anaerobic bacteria” (Antimicrob Agents Chemother, 2009)
In brackets after ≈: the same amount, converted by molar mass. Activity calls are given as the source filed them. The rule behind the calls is not given here.

Experiments:
[1] = test system: Staphylococcus epidermidis
Peptostreptococcus sp. [2] = test: Antibacterial activity against Peptostreptococcus sp. by CLSI M11-A7 method; type: functional
[3] = test system: Staphylococcus haemolyticus; test: Antibacterial activity against Staphylococcus haemolyticus by CLSI M100-S18 method; type: functional
Staphylococcus aureus [4] = test: Antibacterial activity against non-ciprofloxacin-susceptible and methicillin-susceptible Staphylococcus aureus assessed as percent susceptible isolates by CLSI M100-S18 method; type: functional
[5] = test system: Staphylococcus lugdunensis; test: Antibacterial activity against Staphylococcus lugdunensis assessed as percent susceptible isolates by CLSI M100-S18 method; type: functional
Cutibacterium acnes [6] = test: Antibacterial activity against Propionibacterium acnes assessed as percent susceptible isolates by CLSI M11-A7 method; type: functional
Clostridium perfringens [7] = test system: Clostridium perfringens
[8] = test system: Staphylococcus lugdunensis; test: Antibacterial activity against Staphylococcus lugdunensis by CLSI M100-S18 method; type: functional
Streptococcus agalactiae [9] = test: Antibacterial activity against Streptococcus agalactiae by CLSI M100-S18 method; type: functional
Streptococcus pyogenes [10] = test: Antibacterial activity against Streptococcus pyogenes by CLSI M100-S18 method; type: functional
[11] = Antibacterial activity against Lancefield Streptococcus sp. 'group C' assessed as percent susceptible isolates by CLSI M100-S18 method; type: functional
Staphylococcus aureus [12] = test: Antibacterial activity against ciprofloxacin-susceptible and methicillin-resistant Staphylococcus aureus by CLSI M100-S18 method; type: functional
Legionella pneumophila = test: Antibacterial activity against Legionella pneumophila by CLSI M7-A7 method; type: functional
Peptostreptococcus sp. [13] = test: Antibacterial activity against Peptostreptococcus sp. assessed as percent susceptible isolates by CLSI M11-A7 method; type: functional
Streptococcus anginosus = test: Antibacterial activity against Streptococcus anginosus by CLSI M100-S18 method; type: functional
[14] = test system: Streptococcus intermedius; test: Antibacterial activity against Streptococcus intermedius by CLSI M100-S18 method; type: functional
Staphylococcus aureus [15] = test: Antibacterial activity against non-ciprofloxacin-susceptible and methicillin-susceptible Staphylococcus aureus by CLSI M100-S18 method; type: functional
[16] = test system: Staphylococcus saprophyticus; test: Antibacterial activity against Staphylococcus saprophyticus assessed as percent susceptible isolates by CLSI M100-S18 method; type: functional
Morganella morganii [17] = test: Antibacterial activity against Morganella morganii assessed as percent susceptible isolates by CLSI M7-A7 method; type: functional
Klebsiella oxytoca [18] = test: Antibacterial activity against Klebsiella oxytoca by CLSI M7-A7 method; type: functional
Bacteroides fragilis [19] = test: Antibacterial activity against Bacteroides fragilis by CLSI M11-A7 method; type: functional
Morganella morganii [20] = test: Antibacterial activity against Morganella morganii by CLSI M7-A7 method; type: functional
[21] = test system: Staphylococcus epidermidis; test: Antibacterial activity against ciprofloxacin-susceptible and methicillin-resistant Staphylococcus epidermidis assessed as percent susceptible isolates by CLSI M100-S18 method; type: functional
Streptococcus pyogenes [22] = test: Antibacterial activity against Streptococcus pyogenes assessed as percent susceptible isolates by CLSI M100-S18 method; type: functional
[23] = test system: Streptococcus constellatus; test: Antibacterial activity against Streptococcus constellatus by CLSI M100-S18 method; type: functional
Citrobacter koseri [24] = test: Antibacterial activity against Citrobacter koseri by CLSI M7-A7 method; type: functional
Streptococcus sp. [25] = test: Antibacterial activity against Lancefield Streptococcus sp. group F by CLSI M100-S18 method; type: functional
Streptococcus agalactiae [26] = test: Antibacterial activity against Streptococcus agalactiae assessed as percent susceptible isolates by CLSI M100-S18 method; type: functional
Moraxella catarrhalis = test: Antibacterial activity against Moraxella catarrhalis by CLSI M7-A7 method; type: functional
[27] = Antibacterial activity against Lancefield Streptococcus sp. 'group C' by CLSI M100-S18 method; type: functional
[28] = test system: Staphylococcus epidermidis; remark: listed apart in the source
Fusobacterium sp. [29] = test: Antibacterial activity against Fusobacterium sp. by CLSI M11-A7 method; type: functional
[30] = Antibacterial activity against Lancefield Streptococcus sp. 'group G' by CLSI M100-S18 method; type: functional
Streptococcus sanguinis = test: Antibacterial activity against Streptococcus sanguinis by CLSI M100-S18 method; type: functional
Staphylococcus hominis [31] = test: Antibacterial activity against Staphylococcus hominis by CLSI M100-S18 method; type: functional
[32] = test system: Staphylococcus epidermidis; test: Antibacterial activity against non-ciprofloxacin-susceptible and methicillin-susceptible Staphylococcus epidermidis assessed as percent susceptible isolates by CLSI M100-S18 method; type: functional
Cutibacterium acnes [33] = test: Antibacterial activity against Propionibacterium acnes by CLSI M11-A7 method; type: functional
[34] = test system: Staphylococcus epidermidis; test: Antibacterial activity against non-ciprofloxacin-susceptible and methicillin-susceptible Staphylococcus epidermidis by CLSI M100-S18 method; type: functional
Prevotella sp. [35] = test: Antibacterial activity against Prevotella sp. assessed as percent susceptible isolates by CLSI M11-A7 method; type: functional
Fusobacterium sp. [36] = test: Antibacterial activity against Fusobacterium sp. assessed as percent susceptible isolates by CLSI M11-A7 method; type: functional
Streptococcus oralis = test: Antibacterial activity against Streptococcus oralis by CLSI M100-S18 method; type: functional
[37] = Antibacterial activity against Lancefield Streptococcus sp. 'group G' assessed as percent susceptible isolates by CLSI M100-S18 method; type: functional
Streptococcus sp. [38] = test: Antibacterial activity against Lancefield Streptococcus sp. group F assessed as percent susceptible isolates by CLSI M100-S18 method; type: functional
Bacteroides fragilis [39] = test: Antibacterial activity against Bacteroides fragilis assessed as percent susceptible isolates by CLSI M11-A7 method; type: functional
Staphylococcus hominis [40] = test: Antibacterial activity against Staphylococcus hominis assessed as percent susceptible isolates by CLSI M100-S18 method; type: functional
[41] = test system: Staphylococcus epidermidis; test: Antibacterial activity against ciprofloxacin-susceptible and methicillin-resistant Staphylococcus epidermidis by CLSI M100-S18 method; type: functional
Streptococcus mitis = test: Antibacterial activity against Streptococcus mitis by CLSI M100-S18 method; type: functional
[42] = test system: Staphylococcus saprophyticus; test: Antibacterial activity against Staphylococcus saprophyticus by CLSI M100-S18 method; type: functional
Staphylococcus aureus [43] = test: Antibacterial activity against ciprofloxacin-susceptible and methicillin-resistant Staphylococcus aureus assessed as percent susceptible isolates by CLSI M100-S18 method; type: functional
Streptococcus salivarius = test: Antibacterial activity against Streptococcus salivarius by CLSI M100-S18 method; type: functional
Staphylococcus warneri [44] = test: Antibacterial activity against Staphylococcus warneri assessed as percent susceptible isolates by CLSI M100-S18 method; type: functional
Citrobacter koseri [45] = test: Antibacterial activity against Citrobacter koseri assessed as percent susceptible isolates by CLSI M7-A7 method; type: functional
Clostridium perfringens [46] = test: Antibacterial activity against Clostridium perfringens by CLSI M11-A7 method; type: functional
Streptococcus equinus = test: Antibacterial activity against Streptococcus bovis by CLSI M100-S18 method; type: functional
[47] = test system: Staphylococcus haemolyticus; test: Antibacterial activity against Staphylococcus haemolyticus assessed as percent susceptible isolates by CLSI M100-S18 method; type: functional
Klebsiella oxytoca [48] = test: Antibacterial activity against Klebsiella oxytoca assessed as percent susceptible isolates by CLSI M7-A7 method; type: functional
Staphylococcus warneri [49] = test: Antibacterial activity against Staphylococcus warneri by CLSI M100-S18 method; type: functional
Prevotella sp. [50] = test: Antibacterial activity against Prevotella sp. by CLSI M11-A7 method; type: functional

COc1c(N2CCNC(C)C2)c(F)cc2c(=O)c(C(=O)O)cn(C3CC3)c12 (stereo not given) [GATIFLOXACIN]
MIC90 [1]: inactive | MIC50 (Peptostreptococcus sp. [2]): 2 µg/mL (≈ 5.33 µM) | MIC90 (Peptostreptococcus sp. [2]): 4 µg/mL (≈ 10.7 µM) | MIC50 [3]: 2 µg/mL (≈ 5.33 µM) | MIC90 [3]: 8 µg/mL (≈ 21.3 µM) | Activity (Staphylococcus aureus [4]): 54.5% | Activity [5]: 60% | Activity (Cutibacterium acnes [6]): inactive | Activity (Clostridium perfringens [7]): inactive | MIC50 [8]: 0.12 µg/mL (≈ 0.32 µM) | MIC90 [8]: 2 µg/mL (≈ 5.33 µM) | MIC50 (Streptococcus agalactiae [9]): 0.03 µg/mL (≈ 0.0799 µM) | MIC90 (Streptococcus agalactiae [9]): 0.06 µg/mL (≈ 0.16 µM) | MIC50 (Streptococcus pyogenes [10]): 0.12 µg/mL (≈ 0.32 µM) | MIC90 (Streptococcus pyogenes [10]): 0.25 µg/mL (≈ 0.666 µM) | Activity [11]: 100% | MIC50 (Staphylococcus aureus [12]): 0.06 µg/mL (≈ 0.16 µM) | MIC90 (Staphylococcus aureus [12]): 0.25 µg/mL (≈ 0.666 µM) | MIC50 (Legionella pneumophila): 1 µg/mL (≈ 2.66 µM) | MIC90 (Legionella pneumophila): 2 µg/mL (≈ 5.33 µM) | Activity (Peptostreptococcus sp. [13]): inactive | MIC50 (Streptococcus anginosus): 0.25 µg/mL (≈ 0.666 µM) | MIC90 (Streptococcus anginosus): 0.5 µg/mL (≈ 1.33 µM) | MIC50 [14]: 0.06 µg/mL (≈ 0.16 µM) | MIC90 [14]: 1 µg/mL (≈ 2.66 µM) | MIC50 (Staphylococcus aureus [15]): 4 µg/mL (≈ 10.7 µM) | MIC90 (Staphylococcus aureus [15]): > 8 µg/mL | Activity [16]: 99% | Activity (Morganella morganii [17]): 90.2% | MIC50 (Klebsiella oxytoca [18]): 0.03 µg/mL (≈ 0.0799 µM) | MIC90 (Klebsiella oxytoca [18]): 0.5 µg/mL (≈ 1.33 µM) | MIC50 (Bacteroides fragilis [19]): 2 µg/mL (≈ 5.33 µM) | MIC90 (Bacteroides fragilis [19]): 4 µg/mL (≈ 10.7 µM) | MIC50 (Morganella morganii [20]): 0.12 µg/mL (≈ 0.32 µM) | MIC90 (Morganella morganii [20]): > 8 µg/mL | Activity [21]: 88.9% | Activity (Streptococcus pyogenes [22]): <=0.015% | MIC50 [23]: 0.06 µg/mL (≈ 0.16 µM) | MIC90 [23]: 1 µg/mL (≈ 2.66 µM) | MIC50 (Citrobacter koseri [24]): 0.015 µg/mL (≈ 0.04 µM) | MIC90 (Citrobacter koseri [24]): 0.12 µg/mL (≈ 0.32 µM) | MIC (Streptococcus sp. [25]): ≤ 0.015 µg/mL | MIC50 (Streptococcus sp. [25]): ≤ 0.015 µg/mL | MIC90 (Streptococcus sp. [25]): 0.06 µg/mL (≈ 0.16 µM) | Activity (Streptococcus agalactiae [26]): 100% | MIC50 (Moraxella catarrhalis): 0.25 µg/mL (≈ 0.666 µM) | MIC90 (Moraxella catarrhalis): 0.25 µg/mL (≈ 0.666 µM) | MIC [27]: ≤ 0.015 µg/mL | MIC50 [27]: ≤ 0.015 µg/mL | MIC90 [27]: 0.06 µg/mL (≈ 0.16 µM) | MIC90 [28]: inactive | MIC50 (Fusobacterium sp. [29]): 1 µg/mL (≈ 2.66 µM) | MIC90 (Fusobacterium sp. [29]): 4 µg/mL (≈ 10.7 µM) | MIC [30]: ≤ 0.015 µg/mL | MIC50 [30]: ≤ 0.015 µg/mL | MIC90 [30]: 0.06 µg/mL (≈ 0.16 µM) | MIC50 (Streptococcus sanguinis): 0.06 µg/mL (≈ 0.16 µM) | MIC90 (Streptococcus sanguinis): 1 µg/mL (≈ 2.66 µM) | MIC50 (Staphylococcus hominis [31]): 1 µg/mL (≈ 2.66 µM) | MIC90 (Staphylococcus hominis [31]): 4 µg/mL (≈ 10.7 µM) | Activity [32]: 83.3% | MIC (Cutibacterium acnes [33]): 0.25 µg/mL (≈ 0.666 µM) | MIC50 (Cutibacterium acnes [33]): 0.25 µg/mL (≈ 0.666 µM) | MIC90 (Cutibacterium acnes [33]): 0.5 µg/mL (≈ 1.33 µM) | MIC [34]: 1 µg/mL (≈ 2.66 µM) | MIC50 [34]: 1 µg/mL (≈ 2.66 µM) | Activity (Prevotella sp. [35]): inactive | Activity (Fusobacterium sp. [36]): inactive | MIC50 (Streptococcus oralis): 0.06 µg/mL (≈ 0.16 µM) | MIC90 (Streptococcus oralis): 1 µg/mL (≈ 2.66 µM) | Activity [37]: 100% | Activity (Streptococcus sp. [38]): 100% | Activity (Bacteroides fragilis [39]): inactive | Activity (Staphylococcus hominis [40]): 32% | MIC [41]: 0.06 µg/mL (≈ 0.16 µM) | MIC50 [41]: 0.06 µg/mL (≈ 0.16 µM) | MIC50 (Streptococcus mitis): 0.06 µg/mL (≈ 0.16 µM) | MIC90 (Streptococcus mitis): 1 µg/mL (≈ 2.66 µM) | MIC50 [42]: 0.12 µg/mL (≈ 0.32 µM) | MIC90 [42]: 0.25 µg/mL (≈ 0.666 µM) | Activity (Staphylococcus aureus [43]): 94.7% | MIC50 (Streptococcus salivarius): 0.06 µg/mL (≈ 0.16 µM) | MIC90 (Streptococcus salivarius): 1 µg/mL (≈ 2.66 µM) | Activity (Staphylococcus warneri [44]): 86% | Activity (Citrobacter koseri [45]): 99% | MIC50 (Clostridium perfringens [46]): 1 µg/mL (≈ 2.66 µM) | MIC90 (Clostridium perfringens [46]): 1 µg/mL (≈ 2.66 µM) | MIC50 (Streptococcus equinus): 0.06 µg/mL (≈ 0.16 µM) | MIC90 (Streptococcus equinus): 1 µg/mL (≈ 2.66 µM) | Activity [47]: 64.4% | Activity (Klebsiella oxytoca [48]): 96% | MIC50 (Staphylococcus warneri [49]): 0.12 µg/mL (≈ 0.32 µM) | MIC90 (Staphylococcus warneri [49]): 4 µg/mL (≈ 10.7 µM) | MIC50 (Prevotella sp. [50]): 8 µg/mL (≈ 21.3 µM) | MIC90 (Prevotella sp. [50]): 16 µg/mL (≈ 42.6 µM)
